Results as given in patent US6635656B1, “Cytotoxic alkaloids halitulin” (Pharma Mar, S.A., priority 1998, dated 2003).
Values after ≈ are worked out from the molar mass of the structure shown. Read-outs that look alike come from different tables or passages of the source.

Key:
[1] = Cytotoxic activity, test not specified; format: cell-based; settings: qualitative statement, cell line not given
[2] = tested on: A-549 human lung carcinoma; assay: Cytotoxicity screening against A-549 cell culture; format: cell-based; settings: A-549 cells, three days of incubation, Crystal Violet
Description: (§1) Cell Cultures. Cells were maintained in logarithmic phase of growth in eagle's Minimum Essential Medium, with Earle's Balanced Salts, with […] L-glutamine, with non-essential amino acids, without sodium bicarbonate (EMEM/neaa); supplemented with 10% Fetal Calf Serum (FCS), 10^−2 M sodium bicarbonate and 0,1 g/l penicillin-G+streptomycin sulfate.
(§2) A simple screening procedure has been carried out to determine and compare the antitumor activity of these compounds, using an adapted form of the method described by Bergeron et al. (1984)(1). The antitumor cells employed have been P-388 (suspension culture of a lymphoid neoplasm from DBA/2 mouse), A0549 (monolayer culture of a human lung carcinoma), HT-29 (monolayer culture of a human colon carcinoma) and MEL-28 (monolayer culture of a human melanoma).
(§3) A-549, HT-29 and MEL-28 cells were seeded into 16 mm wells at 2×10^4 cells per well in 1 ml aliquots of MEM 10FCS containing the indicated concentration of drug. A separate set of cultures without drug was seeded as control growth to ensure that cells remained in exponential phase of growth. All determinations were carried out in duplicate. After three days of incubation at 37° C., 10% CO2 in a 98% humid atmosphere, the wells were stained with 0.1% Crystal Violet. An approximately IC50 was determined by comparing the growth in wells with drug to the growth in wells control.

MEL-28 human melanoma = assay: Cytotoxicity screening against MEL-28 cell culture; format: cell-based; settings: SK-MEL-28, 72 h, MEL-28 cells, three days of incubation, Crystal Violet
Description: as §1, §2, §3

P-388 murine leukemia = assay: Cytotoxicity screening against P-388 cell culture; format: cell-based; settings: Mus musculus, P388; P-388 cells, approximate IC50 from growth vs control wells
Description: as §1, §2
P-388 cells were seeded into 16 mm wells at 1×10^4 cells per well in 1 ml aliquots of MEM 5FCS containing the indicated concentration of drug. A separate set of cultures without drug was seeded as control growth to ensure that cells remained in exponential phase of growth. All a 98% humid atmosphere, an approximately IC50 was determined by comparing the growth in wells with drug to the growth in wells control.

[3] = Stability observations (light, air, handling); format: physicochemical; settings: N-oxides, then o-quinolinoquinone, form
Protocol: Halitulin (2) was analyzed for C35H40N4O4 by HREIMS (m/z 580.3054, 100% Δmmu−0.5) confirmed by positive and negative FABMS (m/z 581 and 579, respectively). […] The duplicated part, according to the integration of the proton signals, was determined to be the aromatic portion of the molecule. Comparing the NMR data of the aliphatic part of 2 (Table 1) with haliclorensin (1)^7, together with the COSY, TOCSY, and HMBC data, established their identity. The incorporation of 1 in halitulin was further supported by the two MS fragments at m/z 168 (C11H22N+, 48%) and m/z/399 (MW^+-C12H24N, 90%), resulting from the preferable αβ to the aliphatic nitrogen-atoms^1 fragmentation at C-13,14 and C-12,13 respectively. Determination of the haliclorensin moiety in 2 left C22H14N3O4 (including the adjoining N-atom) with 17 degrees of unsaturation to be accounted for. […] Indeed, acetylation of 2, with a 1:1 mixture of Ac2O/pyridine, overnight at room temperature., afforded a very unstable tetra phenol acetate (3), on the basis of the HREIMS which gave the suitable molecular ion and also four subsequential losses of 42 mass units, and no loss of 60 mass units^13. The four phenol acetate groups were in full agreement with the 1773 cm^−1 IR absorption and the new methyls in the proton NMR. […]

[4] = tested on: HT-29 human colon carcinoma; assay: Cytotoxicity screening against HT-29 cell culture; format: cell-based; settings: HT-29 cells, three days of incubation, Crystal Violet
Description: as §1, §2, §3

| SMILES | cytotoxic activity [1] | IC50 [2] [µg/mL] | IC50 ([2]; Homo sapiens, A549, 72 h, read-out: IC50) [µg/mL] | IC50 (MEL-28 human melanoma) [µg/mL] | IC50 (P-388 murine leukemia) [µg/mL] | stability to light and air [3] | IC50 [4] [µg/mL] | IC50 ([4]; Homo sapiens, HT-29, 72 h, read-out: IC50) [µg/mL] |
| --- | --- | --- | --- | --- | --- | --- | --- | --- |
| CC1CCCCCN(CCCN)C1 (centres unmarked) [haliclorensin, N-(3′-arninopropyl)-3-methylazacyclodecane] | inactive |  |  |  |  |  |  |  |
| CC1CCCCCCCN(CCCn2cc(-c3cc(O)c(O)c4ncccc34)c(-c3cc(O)c(O)c4ncccc34)c2)C1 (centres unmarked) [Halitulin, halitulin] |  | 0.0125 (≈ 0.0215 µM) | 0.012 (≈ 0.0207 µM) | 0.025 (≈ 0.043 µM) | 0.025 (≈ 0.043 µM) | sensitive to light and air | 0.0125 (≈ 0.0215 µM) | 0.012 (≈ 0.0207 µM) |
